Experimental data reported in PubChem BioAssay AID1324 (NMMLSC, 2008).
Calls of active or inactive are those of the source. The rule behind the calls is not given here.

Target: glutathione S-transferase (GST-GSH binding)
Assay: GST–glutathione interaction disruption – biochemical, multiplex beads, flow cytometry, HPSMTB buffer, profiling panel (AID 1324);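 note: glutathione beads loaded with GST-green fluorescent protein and no fluorescent Bim peptide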
Conditions: multiplex bead flow cytometry, MCF

Compound | EC50
CCOC(=O)c1ccc(Nc2nc(C(=O)OCC)nc3ccccc23)cc1 | 2380 nM
COc1ccc2nc(-c3ccco3)c(-c3ccco3)nc2c1 | inactive
Cc1cccc(N=C2NC(=O)/C(=C/C=C/c3ccco3)S2)c1C | inactive
NC(=O)c1sc2nc3c(c(-c4ccco4)c2c1N)CCC3 | inactive
CN(C)[C@@H]1C(=O)C(C(=O)NCN2CCCC2)=C(O)[C@@]2(O)C(=O)C3=C(O)c4c(O)cccc4[C@@](C)(O)C3CC12 (stereo not given in full) | inactive

Same assay, conditions: multiplex bead flow cytometry, MCF, stronger effect = higher value, concentration not given here

Compound | percent span inhibition
Cn1c(=O)c(C(=O)COC(=O)c2cc(-c3ccco3)nc3ccccc23)c(N)n(Cc2ccccc2)c1=O | inactive
COc1ccccc1NC(=O)CSc1ncn(-c2ccccc2)n1 | inactive
COc1ccc(C)cc1-n1c(=O)c2ccccc2c2ccccc2c1=O | inactive
CN(C)c1ccc(C(=O)/C=C/c2ccc(Br)cc2)cc1 | inactive
Nc1ccc(-c2cn3cccnc3n2)cc1 | inactive
Cc1ccc(/C=C2/NC(=O)N(Cc3ccc(Br)cc3)C2=O)o1 | inactive
CC1N(C)c2cccc3cccc(c23)N1C | inactive
O=C(COc1ccc(Br)cc1CNC1CCCCC1)NCCc1ccccc1 | inactive
COc1cc(N=c2ssnc2Cl)c(OC)cc1Cl | inactive
COc1ccc(S(=O)(=O)NCCSc2ccccc2)cc1OC | inactive
CCCn1c(N2CCN(C)CC2)nc2c1c(=O)[nH]c(=O)n2C | inactive
COc1ccc(NC(=O)C2=C(C)NC(=O)NC2c2cccc(OC)c2OC)c(OC)c1 (stereo not given) | inactive
CCC(=O)N(CC)C1=C(O)c2ccccc2C(=O)C1=O | inactive
O=C1NC(=O)C(=Cc2ccc(-c3cc(Cl)ccc3[N+](=O)[O-])o2)C(=O)N1 | inactive
C=CCn1c(C)cc(-c2csc(NC)n2)c1C | inactive
O=C(NCc1ccccc1)C(=O)Nc1nc(C23CC4CC(CC(C4)C2)C3)cs1 | inactive
O=C(Nc1n[nH]c(C(F)(F)F)n1)C1CC1 | inactive
CCCCN(C(=O)CCC(=O)Nc1cc(C)on1)C(C(=O)NC(C)(C)C)c1cccc(OC)c1OC (stereo not given) | inactive
CCSc1nnc(NC(=O)c2c(-c3ccccc3Cl)noc2C)s1 | inactive
COc1cc(/C=C2/NC(=O)N(Cc3ccccc3F)C2=O)cc(OC)c1O | inactive
COc1ccc(N2C(=O)/C(=C/c3cccs3)NC2=S)cc1 | inactive
Cc1ccccc1-n1c(SCc2cccc(F)c2)nc2[nH]ncc2c1=O | inactive
Cc1c(Cc2ccccc2)sc(N)c1C(N)=O | inactive
O=C(Nc1cccc(-c2ccc3nncn3n2)c1)c1ccco1 | inactive

Compound | percent span inhibition
Nc1ccc(N2CCN(CCCCN3C(=O)C4CCCN4C3=O)CC2)cc1 (stereo not given) | inactive
COc1ccc(C)cc1Nc1ccc(C(=O)O)cc1[N+](=O)[O-] | inactive
Cc1cc(-c2cc(-c3ccc(Cl)cc3)nc(N)c2C#N)co1 | inactive
Cc1cc(-c2nnc3n2N=C(c2ccc(-c4ccccc4)cc2)CS3)n[nH]1 | inactive
CCOc1cc(S(=O)(=O)N2CCCCC2)ccc1F | inactive
COc1ccc(Cc2c(O)nc(SC)n(C(C)=O)c2=O)cc1 | inactive
Cc1ccc(Nc2nc(C)cs2)cc1 | inactive
COc1ccc(N2CC(C(=O)Nc3nnc(SCC(=O)c4ccccc4)s3)CC2=O)cc1 (stereo not given) | inactive
Cc1ccc(NC2=C(Cl)C(=O)c3ccccc3C2=O)cc1 | inactive
CCOc1ccc(NCc2ccccc2OCc2cccc(F)c2)cc1 | inactive
COc1ccccc1Oc1ccc2c(c1)C(=O)N(c1cccc3ncccc13)C2=O | inactive
Cc1ccnc(NS(=O)(=O)c2ccc(NS(=O)(=O)c3cccs3)cc2)n1 | inactive
O=C(c1ccccc1NS(=O)(=O)c1ccc(Br)s1)N1CCCC1 | inactive
COc1cc(C2Nc3cccc4cccc(c34)N2)ccc1OC(C)=O | inactive
CCCCC(C(=O)OCC)C(N)Cc1ccc(F)cc1 (stereo not given) | inactive
O=C(c1cnccn1)N(Cc1cccs1)C1(C(=O)NC2CCCCC2)CCCCC1 | inactive
O=C(Cn1c(-c2ccccc2)noc1=O)N1CCC(Cc2ccccc2)CC1 | inactive
COc1cc2[nH]c(=S)nc(NCCCOC(C)C)c2cc1OC | inactive
Cc1ccc(-c2c3c([nH]c(=S)c2C#N)CCCC3)o1 | inactive
CC(C)c1ccc(C2CC(c3ccc(Br)cc3)=NN2C(N)=S)cc1 (stereo not given) | inactive
Cc1ccc(SCCC(=O)Nc2ccc(Br)c(C)c2)cc1 | inactive
N/C(Cc1ccc(Cl)c(Cl)c1)=N\OC(=O)c1cccs1 | inactive
C/C(=N\NC(=O)COc1ccc(C#N)cc1)c1ccccc1OC(F)F | inactive
Cc1ccc(CNc2ccc3c(c2)OCO3)c(C)c1 | inactive

Compound | percent span inhibition
COC(=O)c1cccc(-n2c(C)cc(C=O)c2C)c1 | inactive
CCSc1ncnc2sc(C)c(C)c12 | inactive
OCCC1CN(Cc2ccc3ncccc3c2)CCN1Cc1ccccc1 (stereo not given) | inactive
Cc1ccc(-c2cc(C(=O)Nc3ccccc3C)c3ccccc3n2)o1 | inactive
CCOC(=O)C1=C(CC)Nc2ccccc2N=C1NC(=O)c1ccc(S(=O)(=O)N2CCOCC2)cc1 | inactive
Cn1c(CNc2nc(-c3ccccc3)cs2)nnc1SCC(=O)N1CCc2ccccc21 | inactive
Fc1ccc(/C=C2\CCCC3=C2NC(=S)NC3c2ccc(F)cc2)cc1 (stereo not given) | inactive
Cc1cc(N2CCN(C)CC2)nc2ccc(NC(=S)N3CCN(c4ccc(F)cc4)CC3)cc12 | inactive
O=C(Nc1ccccn1)c1cc2ccccc2o1 | inactive
O=C1C(=O)c2ccc(-c3ccccc3)cc2-c2ccccc21 | inactive
Cc1ccc2c(c1)C1CN(C)CCC1N2C(=O)Nc1cccc(Cl)c1 (stereo not given) | inactive
CC(C)C(=O)N1CCN(c2ccc([N+](=O)[O-])cc2Cl)CC1 | inactive
CN(CCCOc1ccccc1Br)Cc1ccccc1 | inactive
Clc1ccc2c(N/N=C/c3ccc(Br)cc3)ccnc2c1 | inactive
C/C(=N\NC(=O)COc1ccc(C(C)(C)C)cc1)c1ccc2c(c1)OCCO2 | inactive
CC(=O)Nc1ccc(NC2=C(Cl)C(=O)c3ccccc3C2=O)cc1 | inactive
O=C(NC1=C(Nc2ccc(F)cc2)C(=O)c2ccccc2C1=O)c1ccc(Cl)cc1 | inactive
O=C(NC1=C(Nc2ccc(Cl)cc2)C(=O)c2ccccc2C1=O)c1ccccc1 | inactive
CCOC(=O)c1sc(NC(=O)c2ccncc2)c(C#N)c1C | inactive
COC(=O)c1c(C(=O)OC)c2cccc3cc(-c4ccccc4)c4ccc1c4n32 | inactive
CCN1/C(=C\c2ccc3cc(C)ccc3[n+]2CC)Sc2cc(C)c(C)cc21 | inactive
COc1ccc(Cl)cc1-n1c(C)cc(C=O)c1C | inactive
O=C1c2ccccc2C(=O)N1CN(C(=O)COc1ccc(Cl)cc1Cl)c1cccc(F)c1 | inactive
COc1ccc(N2CCN(C(=O)c3cc(=O)[nH]c4ccccc34)CC2)cc1 | inactive

Compound | percent span inhibition
CN1CCc2cccc3c2[C@H]1Cc1ccc(O)c(O)c1-3 | inactive
O=C(Nc1ccc2nc(-c3ccco3)c(-c3ccco3)nc2c1)N1CCN(c2ccccn2)CC1 | inactive
c1ccc(Nc2nc(-c3ccncc3)cs2)cc1 | inactive
CCN1CCN(c2cc(C)c3cc(NC(=S)N4CCCCC4)ccc3n2)CC1 | inactive
Cc1cc(N/C(=N/S(=O)(=O)c2cc(F)ccc2F)c2ccccc2)n(-c2ccccc2)n1 | inactive
Cc1cnnn1-c1ccc(C(=O)CCl)cc1 | inactive
CC(=O)c1ccc(NC(=O)c2ccc3nc(-c4ccco4)c(-c4ccco4)nc3c2)cc1 | inactive
Cc1ccc(Nc2nc(CSc3nnc(-c4cccnc4)n3-c3ccccc3C)cs2)cc1 | inactive
COc1ccc(S(=O)(=O)NCCSc2ccc(Cl)cc2)cc1OC | inactive
CCNC(=O)N1c2ccc(OCC)cc2C(C)=CC1(C)C | inactive
CCCCCCc1cc2cc(C(=O)Nc3ccccc3)c(=O)oc2cc1O | inactive
Cc1nnc2ccc(-c3cccc(NC(=O)c4ccco4)c3)nn12 | inactive
O=C(N/N=C/c1ccncc1)c1cccc(NC(=O)c2ccccc2Cl)c1 | inactive
CCc1cccc(CC)c1-n1c(-c2cccnc2)n[nH]c1=S | inactive
CN(C)c1cccc(NC(=O)C2(C)CC2(Cl)Cl)c1 (stereo not given) | inactive
S=C(Nc1ccc(N2CCOCC2)cc1)Nc1ccc2nc(-c3ccco3)c(-c3ccco3)nc2c1 | inactive
N#C/C(=C(/O)CN1CCN(c2ccccc2F)CC1)c1nc(-c2ccccc2)cs1 | inactive
CCOC(=O)CSC1=NC(=O)/C(=C/c2ccc(Br)cc2)S1 | inactive
COCCNC(=S)Nc1cc(OC)c(OC)cc1C#N | inactive
CC1(C)CC(=O)C(C=NCCN2CCN(CCc3ccccc3)CC2)=C(O)C1 | inactive
CCNC(=S)Nc1ccc(OCC)cc1 | inactive
O=C(/C=C\c1ccc(-c2ccccc2)o1)c1ccccc1 | inactive
COc1ccc(CC(=O)Nc2ccccc2Oc2ccccc2)cc1 | inactive
